Laboratory results from patent US12509424B2, “Compound and composition as PDGF receptor kinase inhibitor” (NIPPON SHINYAKU CO., LTD., priority 2019, dated 2025).
Like-named read-outs stand apart in the source and are kept apart here.

Key:
[1] = tested on: pulmonary arterial smooth muscle cells; assay: Suppression of proliferation of pulmonary arterial smooth muscle cells (PDGF-BB stimulation, BrdU); assay type: cell-based; conditions: PASMC, read-out: Human normal PASMC proliferation suppression (PDGF stimulation_IC50)
Outline: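 Test compound (final 3 to 10,000 nM) was added together with BrdU and PDGF-BB (final 10 ng/mL) to healthy human pulmonary artery smooth muscle cells held a day in 0.1% FBS. Proliferation was read after 1 day as anti-BrdU-detected BrdU incorporation.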

[2] = molecular target: TEL-PDGFRβ fusion gene transfected cells (Ba/F3); assay: Suppression of proliferation of TEL-PDGFRβ fusion gene transfected Ba/F3 cells; assay type: cell-based, human; conditions: TEL-PDGFRβ expressing Ba/F3 cells, 72 hours, final concentration 0.1 to 10,000 nM; read-out: PDGFR β/BaF3 proliferation inhibition (IC50)
From the text: 2. Preparation of Test Substance
4. Analysis of Measurement Results

[3] = molecular target: TEL-KIT fusion gene transfected cells (Ba/F3); assay: Suppression of proliferation of TEL-KIT fusion gene transfected Ba/F3 cells; conditions: read-out: KIT/BaF3 proliferation inhibition (IC50); TEL-KIT expressing Ba/F3 cells, 72 hours, final concentration 0.1 to 10,000 nM;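 note: viable cells quantified via formazan from tetrazolium reduction, inhibition scaled with 0.1% DMSO control as 0% and medium-only blank as 100%, IC50 from two-parameter logistic fit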
PDGFR-β = PDGFR-β (Homo sapiens (Human), UniProt P09619); assay: PDGFR-β tyrosine kinase inhibitory action (HTRF KinEASE-TK); assay type: biochemical; conditions: PDGFR-β enzyme 1 ng/μL, 30° C. for 30 minutes; read-out: PDGF-β IC50
Outline: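 Recombinant PDGFR-β at 1 ng/μL final with TK substrate-3-biotin in a substrate solution containing 0.6 μM ATP; buffer 50 mM HEPES pH 7.0, 5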

[4] = human PDGF-BB 10 ng/mL, BrdU uptake, final concentration 3 to 10,000 nM
[5] = 24 h, healthy human derived pulmonary arterial smooth muscle cells, human PDGF-BB 10 ng/mL stimulation, BrdU uptake after 1 day, test substance final concentration 3 to 10,000 nM

TEL-KIT fusion gene transfected cells (Ba/F3), sequence (P10721 26-976 limits assumed, change not shown): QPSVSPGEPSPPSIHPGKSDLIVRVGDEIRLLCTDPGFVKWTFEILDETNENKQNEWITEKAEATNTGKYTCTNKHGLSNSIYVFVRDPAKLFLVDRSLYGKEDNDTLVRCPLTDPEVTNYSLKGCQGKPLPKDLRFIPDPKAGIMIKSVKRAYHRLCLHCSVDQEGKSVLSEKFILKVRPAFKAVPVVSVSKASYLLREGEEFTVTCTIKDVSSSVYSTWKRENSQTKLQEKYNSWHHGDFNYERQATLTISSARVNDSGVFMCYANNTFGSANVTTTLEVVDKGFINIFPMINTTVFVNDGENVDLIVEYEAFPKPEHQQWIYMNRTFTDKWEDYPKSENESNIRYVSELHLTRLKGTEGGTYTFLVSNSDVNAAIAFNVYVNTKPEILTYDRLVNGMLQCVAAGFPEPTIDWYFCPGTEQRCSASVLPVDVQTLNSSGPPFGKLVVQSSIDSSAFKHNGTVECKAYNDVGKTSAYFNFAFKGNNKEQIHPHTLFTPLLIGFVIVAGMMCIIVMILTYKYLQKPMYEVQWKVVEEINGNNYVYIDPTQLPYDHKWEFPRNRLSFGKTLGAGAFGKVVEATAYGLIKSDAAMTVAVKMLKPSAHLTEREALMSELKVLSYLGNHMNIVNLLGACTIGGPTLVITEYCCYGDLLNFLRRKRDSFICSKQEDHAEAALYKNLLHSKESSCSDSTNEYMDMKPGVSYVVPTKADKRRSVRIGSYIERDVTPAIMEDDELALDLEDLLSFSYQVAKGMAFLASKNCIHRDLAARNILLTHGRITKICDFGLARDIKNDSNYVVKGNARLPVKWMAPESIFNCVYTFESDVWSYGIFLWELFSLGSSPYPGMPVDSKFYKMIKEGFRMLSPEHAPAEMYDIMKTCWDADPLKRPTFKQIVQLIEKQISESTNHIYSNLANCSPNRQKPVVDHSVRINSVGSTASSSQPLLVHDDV
PDGFR-β, sequence (P09619 33-1106): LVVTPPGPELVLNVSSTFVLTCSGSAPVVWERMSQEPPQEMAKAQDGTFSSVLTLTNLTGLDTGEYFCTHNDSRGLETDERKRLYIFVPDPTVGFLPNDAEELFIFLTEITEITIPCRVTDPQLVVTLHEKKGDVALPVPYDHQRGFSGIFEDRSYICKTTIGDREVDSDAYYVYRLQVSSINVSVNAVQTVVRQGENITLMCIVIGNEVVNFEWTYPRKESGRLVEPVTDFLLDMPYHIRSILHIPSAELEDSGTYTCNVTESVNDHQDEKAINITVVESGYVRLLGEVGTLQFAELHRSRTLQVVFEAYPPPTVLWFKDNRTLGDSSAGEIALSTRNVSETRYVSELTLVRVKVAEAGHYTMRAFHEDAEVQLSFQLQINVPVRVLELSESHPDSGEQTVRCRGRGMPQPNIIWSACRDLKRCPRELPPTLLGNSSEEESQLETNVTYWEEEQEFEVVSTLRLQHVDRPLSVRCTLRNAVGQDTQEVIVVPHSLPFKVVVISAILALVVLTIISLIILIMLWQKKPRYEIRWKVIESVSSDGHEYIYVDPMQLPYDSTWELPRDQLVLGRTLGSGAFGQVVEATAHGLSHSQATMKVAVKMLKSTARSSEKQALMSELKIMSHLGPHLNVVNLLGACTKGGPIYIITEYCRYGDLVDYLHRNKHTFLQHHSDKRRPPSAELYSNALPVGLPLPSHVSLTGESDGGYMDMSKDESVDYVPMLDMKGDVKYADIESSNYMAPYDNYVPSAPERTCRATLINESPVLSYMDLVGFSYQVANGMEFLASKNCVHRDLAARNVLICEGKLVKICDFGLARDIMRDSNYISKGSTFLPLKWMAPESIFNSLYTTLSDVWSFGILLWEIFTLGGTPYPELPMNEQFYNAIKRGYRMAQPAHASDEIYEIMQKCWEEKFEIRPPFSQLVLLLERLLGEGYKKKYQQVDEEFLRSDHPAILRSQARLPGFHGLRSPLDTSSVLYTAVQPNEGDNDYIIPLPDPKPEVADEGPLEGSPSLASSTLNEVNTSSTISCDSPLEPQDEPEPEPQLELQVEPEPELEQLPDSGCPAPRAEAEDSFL
TEL-PDGFRβ fusion gene transfected cells (Ba/F3), sequence (P09619 33-1106 limits assumed, change not shown): as the sequence (P09619 33-1106) above

| IC50 [2] | IC50 [3] | IC50 (PDGFR-β) | Compound | IC50 [1, 4] | IC50 [1, 5] |
| --- | --- | --- | --- | --- | --- |
| 10 nM | 800 nM | 42 nM | Cc1ccc(C(=O)N[C@H]2CCCC[C@@H]2O)cc1NC(=O)c1cncc(N(C)C2CC2)c1 [Example 17, 5-[cyclopropyl(methyl)amino]-N-(5-{[(1S,2S)-2-hydroxycyclohexyl]carbamoyl}-2-methylphenyl)pyridine-3-carboxamide] | 130 nM |  |
| 20 nM | 530 nM | 39 nM | COc1ccc(-c2cncc(C(=O)Nc3cc(C(=O)N[C@H]4CCCC[C@@H]4O)ccc3C)c2)cc1 [Example 18, N-(5-{[(1S,2S)-2-hydroxycyclohexyl]carbamoyl}-2-methylphenyl)-5-(4-methoxyphenyl)pyridine-3-carboxamide] | 47 nM |  |
| 30 nM | 1000 nM | 13 nM | Cc1ccc(C(=O)N[C@H]2CCCC[C@@H]2O)cc1NC(=O)c1cncc(-c2ccc(F)cc2)c1 [Example 19, 5-(4-fluorophenyl)-N-(5-{[(1S,2S)-2-hydroxycyclohexyl]carbamoyl}-2-methylphenyl)pyridine-3-carboxamide] | 81 nM |  |
| 24 nM | 900 nM | 13 nM | Cc1ccc(C(=O)N[C@H]2CCCC[C@@H]2O)cc1NC(=O)c1cncc(-c2cccc(F)c2)c1 [Example 20, 5-(3-fluorophenyl)-N-(5-{[(1S,2S)-2-hydroxycyclohexyl]carbamoyl}-2-methylphenyl)pyridine-3-carboxamide] | 77 nM |  |
| 60 nM | 2000 nM | 73 nM | Cc1ccc(C(=O)N[C@H]2CCCC[C@@H]2O)cc1NC(=O)c1cncc(-c2ccc(C(F)(F)F)cc2)c1 [Example 21, N-(5-{[(1S,2S)-2-hydroxycyclohexyl]carbamoyl}-2-methylphenyl)-5-[4-(trifluoromethyl)phenyl]pyridine-3-carboxamide] | 140 nM |  |
| 59 nM | 900 nM | 14 nM | Cc1ccc(C(=O)N[C@H]2CCCC[C@@H]2O)cc1NC(=O)c1cncc(-c2cccc(C(F)(F)F)c2)c1 [Example 22, N-(5-{[(1S,2S)-2-hydroxycyclohexyl]carbamoyl}-2-methylphenyl)-5-[3-(trifluoromethyl)phenyl]pyridine-3-carboxamide] | 100 nM |  |
| 4.9 nM | 620 nM | 26 nM | CC(C)=Cc1cncc(C(=O)Nc2cc(C(=O)N[C@H]3CCCC[C@@H]3O)ccc2C)c1 [Example 23, N-(5-{[(1S,2S)-2-hydroxycyclohexyl]carbamoyl}-2-methylphenyl)-5-(2-methylprop-1-en-1-yl)pyridine-3-carboxamide] | 64 nM |  |
| 11 nM | 1200 nM | 64 nM | Cc1ccc(C(=O)N[C@H]2CCCC[C@@H]2O)cc1NC(=O)c1cncc(OCC2CC2)c1 [Example 24, 5-(cyclopropylmethoxy)-N-(5-{[(1S,2S)-2-hydroxycyclohexyl]carbamoyl}-2-methylphenyl)pyridine-3-carboxamide] | 110 nM |  |
| 50 nM | > 10000 nM | 39 nM | Cc1ccc(C(=O)N[C@H]2CCCC[C@@H]2O)cc1NC(=O)c1cnc(NC2CC(F)(F)C2)s1 [Example 25, 2-[(3,3-difluorocyclobutyl)amino]-N-(5-{[(1S,2S)-2-hydroxycyclohexyl]carbamoyl}-2-methylphenyl)-1,3-thiazole-5-carboxamide] | 230 nM |  |
| 9.3 nM | 460 nM | 4.6 nM | Cc1ccc(C(=O)N[C@H]2CCCC[C@@H]2O)cc1NC(=O)c1cnc(NCCC2CC2)s1 [Example 26, 2-[(2-cyclopropylethyl)amino]-N-(5-{[(1S,2S)-2-hydroxycyclohexyl]carbamoyl}-2-methylphenyl)-1,3-thiazole-5-carboxamide] | 25 nM |  |
| 8.7 nM | 1000 nM | 8.3 nM | Cc1ccc(C(=O)N[C@H]2CCCC[C@@H]2O)cc1NC(=O)c1cnc(NC(C)C)s1 [Example 27, N-(5-{[(1S,2S)-2-hydroxycyclohexyl]carbamoyl}-2-methylphenyl)-2-[(propan-2-yl)amino]-1,3-thiazole-5-carboxamide] | 70 nM |  |
| 50 nM | 5800 nM | 170 nM | Cc1ccc(C(=O)N[C@H]2CCCC[C@@H]2O)cc1NC(=O)c1cncc(OC2CCC(F)(F)CC2)c1 [Example 28, 5-[(4,4-difluorocyclohexyl)oxy]-N-(5-{[(1S,2S)-2-hydroxycyclohexyl]carbamoyl}-2-methylphenyl)pyridine-3-carboxamide] | 280 nM |  |
| 7.5 nM | 290 nM | 35 nM | Cc1ccc(C(=O)N[C@H]2CCCC[C@@H]2O)cc1NC(=O)c1cncc(-c2ccccc2F)c1 [Example 29, 5-(2-fluorophenyl)-N-(5-{[(1S,2S)-2-hydroxycyclohexyl]carbamoyl}-2-methylphenyl)pyridine-3-carboxamide] |  | 130 nM |
| 22 nM | 1300 nM | 44 nM | Cc1ccc(C(=O)N[C@H]2CCCC[C@@H]2O)cc1NC(=O)c1cncc(-c2cccc(F)c2F)c1 [Example 30, 5-(2,3-difluorophenyl)-N-(5-{[(1S,2S)-2-hydroxycyclohexyl]carbamoyl}-2-methylphenyl)pyridine-3-carboxamide] |  | 52 nM |
| 8 nM | 1000 nM | 73 nM | Cc1ccc(C(=O)N[C@H]2CCCC[C@@H]2O)cc1NC(=O)c1cncc(-c2ccc(F)cc2F)c1 [Example 31, 5-(2,4-difluorophenyl)-N-(5-{[(1S,2S)-2-hydroxycyclohexyl]carbamoyl}-2-methylphenyl)pyridine-3-carboxamide] |  | 100 nM |
| 17 nM | 920 nM | 47 nM | Cc1ccc(C(=O)N[C@H]2CCCC[C@@H]2O)cc1NC(=O)c1cncc(-c2cc(F)cc(F)c2)c1 [Example 32, 5-(3,5-difluorophenyl)-N-(5-{[(1S,2S)-2-hydroxycyclohexyl]carbamoyl}-2-methylphenyl)pyridine-3-carboxamide] |  | 190 nM |
| 80 nM | 880 nM | 19 nM | COc1ccc(-c2cncc(C(=O)Nc3cc(C(=O)N[C@H]4CCCC[C@@H]4O)ccc3C)c2)c(F)c1 [Example 33, 5-(2-fluoro-4-methoxyphenyl)-N-(5-{[(1S,2S)-2-hydroxycyclohexyl]carbamoyl}-2-methylphenyl)pyridine-3-carboxamide] |  | 67 nM |
| 8 nM | 540 nM | 19 nM | Cc1ccc(C(=O)N[C@H]2CCCC[C@@H]2O)cc1NC(=O)c1cncc(-c2cccc(OC(F)(F)F)c2)c1 [Example 34, N-(5-{[(1S,2S)-2-hydroxycyclohexyl]carbamoyl}-2-methylphenyl)-5-[3-(trifluoromethoxy)phenyl]pyridine-3-carboxamide] |  | 130 nM |
| 17 nM | 2200 nM | 160 nM | Cc1ccc(C(=O)N[C@H]2CCCC[C@@H]2O)cc1NC(=O)c1cncc(-c2ccccc2OC(F)(F)F)c1 [Example 35, N-(5-{[(1S,2S)-2-hydroxycyclohexyl]carbamoyl}-2-methylphenyl)-5-[2-(trifluoromethoxy)phenyl]pyridine-3-carboxamide] |  | 320 nM |
| 25 nM | 3500 nM | 130 nM | Cc1ccc(C(=O)N[C@H]2CCCC[C@@H]2O)cc1NC(=O)c1cncc(-c2ccc(C(F)(F)F)cc2F)c1 [Example 36, 5-[2-fluoro-4-(trifluoromethyl)phenyl]-N-(5-{[(1S,2S)-2-hydroxycyclohexyl]carbamoyl}-2-methylphenyl)pyridine-3-carboxamide] |  | 92 nM |
| 5.1 nM | 470 nM | 33 nM | Cc1ccc(C(=O)N[C@H]2CCCC[C@@H]2O)cc1NC(=O)c1cncc(-c2c(F)cccc2F)c1 [Example 37, 5-(2,6-difluorophenyl)-N-(5-{[(1S,2S)-2-hydroxycyclohexyl]carbamoyl}-2-methylphenyl)pyridine-3-carboxamide] |  | 46 nM |
| 7.3 nM | 1200 nM | 79 nM | Cc1ccc(C(=O)N[C@H]2CCCC[C@@H]2O)cc1NC(=O)c1cnc(NC(C)(C)C)s1 [Example 38, 2-(tert-butylamino)-N-(5-{[(1S,2S)-2-hydroxycyclohexyl]carbamoyl}-2-methylphenyl)-1,3-thiazole-5-carboxamide] |  | 210 nM |
| 13 nM | 1000 nM | 100 nM | Cc1ccc(C(=O)N[C@H]2CCCC[C@@H]2O)cc1NC(=O)c1cnc(NC2(C)CC2)s1 [Example 39, N-(5-{[(1S,2S)-2-hydroxycyclohexyl]carbamoyl}-2-methylphenyl)-2-[(1-methylcyclopropyl)amino]-1,3-thiazole-5-carboxamide] |  | 150 nM |
